# Experimental data as given in patent US8946201B2, “Methods for inhibiting TGF-β” (Saint Louis University, priority 2007, dated 2015).
# Columns and labels:
# [1] = test system: PAI-1 expression; experiment: TGF-β1-induced PAI-1 expression, Northern blot, Mv1Lu cells; assay type: cell-based, mink; details: for enhancement of PAI-1 expression: 1 μM, 16 hr
# Experimental: (A, B, C, D, E, F) Cells were treated with 50 μg/ml cholesterol (A, B, C, D) and 50 μg/ml LDL (D) at 37° C. for 1 hr or with 1 μM fluvastatin or lovastatin (E) or several concentrations of fluvastatin (F) at 37° C. for 16 hr and then further incubated with increasing concentrations (as indicated) of TGF-β1 (A, B, C, E) or 50 pM TGF-β1 (D,F) for 2 hr. Northern blot analysis of PAI-1 and G3PDH was performed. A representative of a total of three analyses is shown (a). The relative intensities of the transcripts were quantified with a PhosphoImager. The ratio of the relative intensities of PAI-1 and G3PDH transcripts in cells treated without TGF-β1 and cholesterol, LDL or statins on the blot was taken as 1 fold or 100% of PAI-1 expression. The quantitative data from three independent analyses is shown (b). […] (G) Mv1Lu cells stably expressing a luciferase reporter gene driven by the PAI-1 promoter (MLECs-clone 32) were treated with increasing concentrations (as indicated) of cholesterol at 37 EC for 1 hr (a) or with 1 μM lovastatin at 37° C. for 16 hr (b) and then further incubated with 50 pM TGF-β for 7 hr. The luciferase activity in cells treated without cholesterol was taken as 100% (a). […] (H) Cells were incubated with 0.0625 and 0.125 pM TGF-β1 in the presence of increasing concentrations of cholesterol, as indicated. […] The experiments were carried out in triplicate.
# [2] = test system: TβR-I and TβR-II; experiment: 125I-TGF-β1 affinity labeling, Mv1Lu cells; assay type: cell-based, mink
# Experimental: (A) Mv1Lu cells were treated with 50 μg/ml cholesterol at 37° C. After several time periods, as indicated, ^125I-TGF-β1-affinity labeling was performed at 0° C. ^125I-TGF-β1 affinity-labeled TGF-β receptors were analyzed by 7.5% SDS-PAGE and autoradiography (a) and quantified with a PhosphoImager. The bracket indicates the locations of ^125I-TGF-β1 affinity-labeled TβR-I and TβR-II. The ratio of ^125I-TGF-β1 binding to TβR-II and TβR-I is plotted against incubation time (b).
# (B, C, D, E) Cells were treated with increasing concentrations of cholesterol in the presence (C) and absence (B, D, E) of 0.2% β-CD, as indicated. After 1 hr at 37° C., ^125I-TGF-β1 affinity labeling of TβR-I and TβR-II in cells was performed at 0° C. ^125I-TGF-β1 affinity-labeled TβR-I and TβR-II were analyzed by 7.5% SDS-PAGE and autoradiography or quantified with a PhosphoImager. A representative of a total of three analyses is shown (top). The bracket indicates the locations of ^125I-TGF-β affinity-labeled TβR-I and TβR-II. The relative intensities of ^125I-TGF-β1 affinity-labeled TβR-I and TβR-II in cells treated without cholesterol were taken as 100%. The quantitative data from three analyses is shown (bottom).
# The bracket indicates the locations of ^125I-TGF-β1 affinity-labeled TβR-I and TβR-II. The relative intensities of ^125I-TGF-β1-TβR-I and ^125I-TGF-β1-TβR-II complexes, which were quantified with a PhosphoImager, are plotted against TGF-β1 concentrations (bottom).
# (A, B, C, D, E, F) Cells were treated with LDL (50 μg protein/ml), VLDL (5 μg protein/ml), HDL (50 μg protein/ml), lipoprotein (a) (10 μg/ml), fluvastatin (F; 1 μM), lovastatin (L; 1 μM), nystatin (Nys; 25 μg/ml), β-CD (β-CD; 8 mM), cholest-4-en-3-one (3-one; 50 μg/ml) or cholesterol (Chol; 50 μg/ml) alone or combination of two. After 1 hr at 37° C. or 16 hr at 37° C. (for fluvastatin and lovastatin), ^125I-TGF-β1 affinity labeling of cell-surface TGF-β receptors was performed at 0° C. ^125I-TGF-β1 affinity-labeled TβR-I and TβR-II were analyzed by 7.5% SDS-PAGE and autoradiography. The relative intensities of TβR-I and TβR-II were quantified with a PhosphoImager. The ratio of ^125I-TGF-β1 binding to TβR-II and TβR-I were estimated. The numbers above the lane sequence denote the ratio of TβR-II/TβR-I.
# (G) Mv1Lu cells were treated with 50 μg/ml of cholesterol and cholesterol analogs/derivatives including 25-hydroxycholesterol, 7-dehydrocholesterol (7-DHC), 7-ketocholesterol, 7β, 8β-epoxycholesterol, 7β-hydroxycholesterol, and oxidized 7-dehydrocholesterol (oxy-7DHC). After 1 hr at 37° C., ^125I-TGF-β1 affinity labeling of TGF-β receptors was performed. ^125I-TGF-β1 affinity-labeled TβR-I and TβR-II were analyzed by 7.5% SDS-PAGE and autoradiography. The bracket indicates the locations of ^125I-TGF-β1-affinity-labeled TβR-I and TβR-II. The relative intensities of ^125I-TGF-β1 affinity-labeled TβR-I and TβR-II were determined by a PhosphoImager. The ratios of ^125I-TGF-β1 binding to TβR-II and TβR-I were estimated. The numbers above the lane sequence denote the ratio of TβR-II/TβR-I.
# After cross-linking, cell lysates were analyzed by 7.5% SDS-PAGE and autoradiography or quantified by a PhosphoImager. For all experiments, cholesterol or cholesterol derivatives were prepared as the stock solution with a concentration of 25 mg/ml in ethanol. The final concentration of ethanol in the medium was 0.2% (by vol.).
# [3] = 50 μg/ml, 60-min or 120-min incubation (FIG. 3A)
# [4] = 125 μg/ml in the presence of 0.2% β-CD
smiles,measurement,setting,value
"CC[C@H](C)C(=O)O[C@H]1C[C@@H](C)C=C2C=C[C@H](C)[C@H](CC[C@@H]3C[C@@H](O)CC(=O)O3)[C@H]21 [lovastatin, reference compound]",enhancement of PAI-1 expression,"[1]; 10 pM TGF-β1, Mv1Lu cells",did not enhance
same,enhancement of PAI-1 expression,"[1]; 50 pM TGF-β1, Mv1Lu cells",3 fold
same,ratio of TβR-II/TβR-I,"[2]; 1 μM, 37° C. 16 hr, Mv1Lu cells, 0.88 untreated",1.18
"C[C@@H]1[C@H](O)[C@@H](C)/C=C/C=C/CC/C=C/C=C/C=C/C=C/C(O[C@H]2O[C@H](C)[C@@H](O)[C@H](N)[C@@H]2O)CC2O[C@](O)(CC(O)C(O)CCC(O)CC(O)CC(O)CC(=O)O[C@H]1C)CC(O)C2C(=O)O (stereo partly drawn) [nystatin, reference compound]",effect on the LDL and cholesterol suppression of PAI-1 expression,"[1]; 25 μg/ml nystatin present, data not shown",abolished
same,effect on the LDL- or cholesterol-induced increase of 125I-TGF-β1 binding to TβR-I,"[2]; co-treatment, β-CD 8 mM, nystatin 25 μg/ml, cholest-4-en-3-one 50 μg/ml (FIG. 4B, C)",abolished
CC(C)CCC[C@@H](C)[C@H]1CC[C@H]2[C@@H]3CC=C4C[C@@H](O)CC[C@]4(C)[C@H]3CC[C@]12C [cholesterol],suppression of TGF-β1-stimulated PAI-1 expression,"[1]; 50 μg/ml, TGF-β1 2 to 100 pM, Mv1Lu cells",65-70%
same,effect on 125I-TGF-β1 binding to TβR-II,[2]; [3],did not affect
same,increase of 125I-TGF-β1 binding to TβR-I,[2]; [3],~1.5 fold
same,ratio of TβR-II/TβR-I,"[2]; 50 μg/ml, 60 min or 120 min, 0.37 without cholesterol",0.18
same,effect on the affinities of TGF-β1 binding to both TβR-I and TβR-II,"[2]; 50 μg/ml, 1 hr",does not alter
same,relative potency in increasing binding to TβR-I and decreasing the ratio,"[2]; 50 μg/ml, 1 hr (FIG. 4G)",the most potent of these compounds
same,increase of 125I-TGF-β1 binding to TβR-I,"[2]; 50 μg/ml, 1 hr, 125 pM 125I-TGF-β1 (FIG. 3F)",~2 fold
same,"125I-TGF-β1 binding to TβR-II, relative intensity","[2]; 50 μg/ml, 1 hr, 125 pM 125I-TGF-β1, ~180 untreated",~120 ×10^3 A.U.
same,"125I-TGF-β1 binding to TβR-I, relative intensity","[2]; 50 μg/ml, 1 hr, 125 pM 125I-TGF-β1, ~350 untreated",~700 ×10^3 A.U.
same,ratio of TGF-β1 binding to TβR-II and TβR-I,"[2]; 50 μg/ml, 1 hr, 0.62 untreated (FIG. 4G)",0.29
same,increase of 125I-TGF-β1 binding to TβR-I,"[2]; 50 μg/ml, 1 hr, Mv1Lu cells",~2.5 fold
same,ratio of TβR-II/TβR-I,"[2]; 50 μg/ml, 1 hr, Mv1Lu cells, 0.42 untreated",0.20
same,effect on 125I-TGF-β1 binding to TβR-II,[2]; [4],little effect
same,increase of 125I-TGF-β1 binding to TβR-I,[2]; [4],~3 fold
same,effect of exogenous cholesterol on the statin effect on the ratio,"[2]; CHO-K1, Mv1Lu and BAEC cells (FIGS. 4D, E and F)",abolished
same,effect on binding of 125I-TGF-β1 to TβR-II,"[2]; increasing concentrations, 1 hr, Mv1Lu cells",did not significant alter
